Assay results from the supplement of paper PMC10307832.

Assays:
Experiment in all cases: relative viability (nuclei count vs DMSO), 5 days (fraction); higher = more cells survive
[1] = compound: COc1cccc2cc(-c3nc([C@H]4CC[C@H](C(=O)O)CC4)n4ncnc(N)c34)[nH]c12 [OSI-027] + CC1(C)CCC(c2ccc(Cl)cc2)=C(CN2CCN(c3ccc(C(=O)NS(=O)(=O)c4ccc(N[C@H](CCN5CCOCC5)CSc5ccccc5)c(S(=O)(=O)C(F)(F)F)c4)cc3)CC2)C1 [Navitoclax] (partner 0.5 µM)
In short: (§1)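 Cells from lung cancer lines were seeded into 1536-well plates and, one day later, dosed by pin tool. Treatments were either a single drug or a fixed dose of an anchor drug with five library-drug doses (not always all listed) in √10 steps. After 5 days, nuclei were stained in a one-step fixation (final 0.05% Triton X-100, 1% formaldehyde, 1 ug/ml Hoechst) and counted on 4× images, and relative viability is the treated-to-vehicle nuclei ratio, as the median of duplicate plates.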

[2] = compound: COc1cccc2cc(-c3nc([C@H]4CC[C@H](C(=O)O)CC4)n4ncnc(N)c34)[nH]c12 [OSI-027] + COc1cc2c(Oc3ccc(NC(=O)C4(C(=O)Nc5ccc(F)cc5)CC4)cc3F)ccnc2cc1OCCCN1CCOCC1 [Foretinib] (partner 0.25 µM)
In short: as §1

[3] = compound: CCCS(=O)(=O)Nc1ccc(F)c(C(=O)c2c[nH]c3ncc(-c4ccc(Cl)cc4)cc23)c1F [Vemurafenib] + CCNC(=O)c1noc(-c2cc(C(C)C)c(O)cc2O)c1-c1ccc(CN2CCOCC2)cc1 [Luminespib] (partner 0.01 µM)
In short: as §1

[4] = compound: CCCS(=O)(=O)Nc1ccc(F)c(C(=O)c2c[nH]c3ncc(-c4ccc(Cl)cc4)cc23)c1F [Vemurafenib] + NC(=O)Nc1cc(-c2cccc(F)c2)sc1C(=O)N[C@H]1CCCNC1 [AZD7762] (partner 0.2 µM)
In short: as §1

## LK-2
[1]; first compound 0.01 µM
  relative viability: 0.774
[1]; first compound 0.03162 µM
  relative viability: 0.781
[1]; first compound 0.1 µM
  relative viability: 0.69
[1]; first compound 0.3162 µM
  relative viability: 0.372
[1]; first compound 1 µM
  relative viability: 0.238
[2]; first compound 0.01 µM
  relative viability: 1.13
[2]; first compound 0.03162 µM
  relative viability: 1.2
[2]; first compound 0.1 µM
  relative viability: 1.13
[2]; first compound 0.3162 µM
  relative viability: 0.778
[2]; first compound 1 µM
  relative viability: 0.195
[3]; first compound 0.03162 µM
  relative viability: 0.19
[3]; first compound 0.1 µM
  relative viability: 0.188
[3]; first compound 0.3162 µM
  relative viability: 0.131
[3]; first compound 1 µM
  relative viability: 0.181
[4]; first compound 0.03162 µM
  relative viability: 0.397
[4]; first compound 0.1 µM
  relative viability: 0.428
[4]; first compound 0.3162 µM
  relative viability: 0.406
[4]; first compound 1 µM
  relative viability: 0.312

## LOU-NH91
[1]; first compound 0.01 µM
  relative viability: 0.758
[1]; first compound 0.03162 µM
  relative viability: 0.712
[1]; first compound 0.1 µM
  relative viability: 0.69
[1]; first compound 0.3162 µM
  relative viability: 0.653
[1]; first compound 1 µM
  relative viability: 0.513
[2]; first compound 0.01 µM
  relative viability: 0.924
[2]; first compound 0.03162 µM
  relative viability: 0.914
[2]; first compound 0.1 µM
  relative viability: 0.818
[2]; first compound 0.3162 µM
  relative viability: 0.8
[2]; first compound 1 µM
  relative viability: 0.58
[3]; first compound 0.03162 µM
  relative viability: 0.301
[3]; first compound 1 µM
  relative viability: 0.412
[4]; first compound 0.03162 µM
  relative viability: 0.735
[4]; first compound 0.1 µM
  relative viability: 0.682
[4]; first compound 0.3162 µM
  relative viability: 0.594
[4]; first compound 1 µM
  relative viability: 0.816

## LU99A
[1]; first compound 0.01 µM
  relative viability: 0.754
[1]; first compound 0.03162 µM
  relative viability: 0.651
[1]; first compound 0.1 µM
  relative viability: 0.695
[1]; first compound 0.3162 µM
  relative viability: 0.427
[1]; first compound 1 µM
  relative viability: 0.154
[2]; first compound 0.01 µM
  relative viability: 0.75
[2]; first compound 0.03162 µM
  relative viability: 0.763
[2]; first compound 0.1 µM
  relative viability: 0.685
[2]; first compound 0.3162 µM
  relative viability: 0.517
[2]; first compound 1 µM
  relative viability: 0.302
[3]; first compound 0.03162 µM
  relative viability: 0.224
[3]; first compound 0.1 µM
  relative viability: 0.282
[3]; first compound 0.3162 µM
  relative viability: 0.259
[3]; first compound 1 µM
  relative viability: 0.288
[4]; first compound 0.03162 µM
  relative viability: 0.369
[4]; first compound 0.1 µM
  relative viability: 0.353
[4]; first compound 1 µM
  relative viability: 0.385

## LXF-289
[1]; first compound 0.01 µM
  relative viability: 1.03
[1]; first compound 0.03162 µM
  relative viability: 0.973
[1]; first compound 0.1 µM
  relative viability: 1.01
[1]; first compound 0.3162 µM
  relative viability: 0.921
[1]; first compound 1 µM
  relative viability: 0.582
[2]; first compound 0.01 µM
  relative viability: 0.956
[2]; first compound 0.03162 µM
  relative viability: 0.989
[2]; first compound 0.1 µM
  relative viability: 1.01
[2]; first compound 0.3162 µM
  relative viability: 0.903
[2]; first compound 1 µM
  relative viability: 0.747
[3]; first compound 0.03162 µM
  relative viability: 0.647
[3]; first compound 0.1 µM
  relative viability: 0.584
[3]; first compound 0.3162 µM
  relative viability: 0.661
[3]; first compound 1 µM
  relative viability: 0.689
[4]; first compound 0.03162 µM
  relative viability: 1.04
[4]; first compound 0.1 µM
  relative viability: 1.12
[4]; first compound 0.3162 µM
  relative viability: 1.04
[4]; first compound 1 µM
  relative viability: 1.25

## NCI-H23
[1]; first compound 0.01 µM
  relative viability: 0.666
[1]; first compound 0.03162 µM
  relative viability: 0.955
[1]; first compound 0.1 µM
  relative viability: 0.808
[1]; first compound 0.3162 µM
  relative viability: 0.604
[1]; first compound 1 µM
  relative viability: 0.319
[2]; first compound 0.01 µM
  relative viability: 0.908
[2]; first compound 0.03162 µM
  relative viability: 0.937
[2]; first compound 0.1 µM
  relative viability: 0.929
[2]; first compound 0.3162 µM
  relative viability: 0.653
[2]; first compound 1 µM
  relative viability: 0.464
[3]; first compound 0.03162 µM
  relative viability: 0.194
[3]; first compound 0.1 µM
  relative viability: 0.211
[3]; first compound 0.3162 µM
  relative viability: 0.166
[3]; first compound 1 µM
  relative viability: 0.228
[4]; first compound 0.03162 µM
  relative viability: 0.203
[4]; first compound 0.1 µM
  relative viability: 0.178
[4]; first compound 0.3162 µM
  relative viability: 0.154
[4]; first compound 1 µM
  relative viability: 0.21

## NCI-H322M
[1]; first compound 0.01 µM
  relative viability: 1.24
[1]; first compound 0.03162 µM
  relative viability: 1.15
[1]; first compound 0.1 µM
  relative viability: 1.17
[1]; first compound 0.3162 µM
  relative viability: 0.783
[1]; first compound 1 µM
  relative viability: 1.27
[2]; first compound 0.01 µM
  relative viability: 0.942
[2]; first compound 0.03162 µM
  relative viability: 0.93
[2]; first compound 0.1 µM
  relative viability: 0.764
[2]; first compound 0.3162 µM
  relative viability: 0.654
[2]; first compound 1 µM
  relative viability: 0.517
[3]; first compound 0.03162 µM
  relative viability: 0.861
[3]; first compound 1 µM
  relative viability: 0.825
[4]; first compound 0.03162 µM
  relative viability: 0.559
[4]; first compound 0.3162 µM
  relative viability: 0.543
[4]; first compound 1 µM
  relative viability: 0.51

## NCI-H441
[1]; first compound 0.01 µM
  relative viability: 0.47
[1]; first compound 0.03162 µM
  relative viability: 0.57
[1]; first compound 0.1 µM
  relative viability: 0.425
[1]; first compound 0.3162 µM
  relative viability: 0.47
[1]; first compound 1 µM
  relative viability: 0.185
[2]; first compound 0.01 µM
  relative viability: 1.09
[2]; first compound 0.03162 µM
  relative viability: 0.859
[2]; first compound 0.1 µM
  relative viability: 0.842
[2]; first compound 0.3162 µM
  relative viability: 0.823
[2]; first compound 1 µM
  relative viability: 0.538
[3]; first compound 0.03162 µM
  relative viability: 0.373
[3]; first compound 0.1 µM
  relative viability: 0.245
[3]; first compound 0.3162 µM
  relative viability: 0.392
[3]; first compound 1 µM
  relative viability: 0.316
[4]; first compound 0.03162 µM
  relative viability: 1.09
[4]; first compound 0.1 µM
  relative viability: 1.1
[4]; first compound 0.3162 µM
  relative viability: 1.16
[4]; first compound 1 µM
  relative viability: 1.03

## NCI-H460
[1]; first compound 0.01 µM
  relative viability: 1.21
[1]; first compound 0.03162 µM
  relative viability: 1.06
[1]; first compound 0.1 µM
  relative viability: 1.3
[1]; first compound 0.3162 µM
  relative viability: 0.789
[1]; first compound 1 µM
  relative viability: 0.0638
[2]; first compound 0.01 µM
  relative viability: 1.06
[2]; first compound 0.03162 µM
  relative viability: 0.762
[2]; first compound 0.1 µM
  relative viability: 1
[2]; first compound 0.3162 µM
  relative viability: 0.948
[2]; first compound 1 µM
  relative viability: 0.582
[3]; first compound 0.03162 µM
  relative viability: 0.0379
[3]; first compound 0.1 µM
  relative viability: 0.0333
[3]; first compound 0.3162 µM
  relative viability: 0.0345
[3]; first compound 1 µM
  relative viability: 0.0293
[4]; first compound 0.03162 µM
  relative viability: 0.579
[4]; first compound 0.1 µM
  relative viability: 0.604
[4]; first compound 1 µM
  relative viability: 0.619

## NCI-H596
[1]; first compound 0.01 µM
  relative viability: 0.888
[1]; first compound 0.03162 µM
  relative viability: 0.941
[1]; first compound 0.1 µM
  relative viability: 0.933
[1]; first compound 0.3162 µM
  relative viability: 0.85
[1]; first compound 1 µM
  relative viability: 0.459
[2]; first compound 0.01 µM
  relative viability: 0.834
[2]; first compound 0.03162 µM
  relative viability: 0.923
[2]; first compound 0.1 µM
  relative viability: 0.781
[2]; first compound 0.3162 µM
  relative viability: 0.59
[2]; first compound 1 µM
  relative viability: 0.602
[3]; first compound 0.03162 µM
  relative viability: 0.984
[3]; first compound 0.1 µM
  relative viability: 1.1
[3]; first compound 0.3162 µM
  relative viability: 1.01
[3]; first compound 1 µM
  relative viability: 0.958
[4]; first compound 0.03162 µM
  relative viability: 1.11
[4]; first compound 0.1 µM
  relative viability: 1.05
[4]; first compound 0.3162 µM
  relative viability: 0.801
[4]; first compound 1 µM
  relative viability: 1.02
